Assay results from PubChem BioAssay AID504861 (Broad Institute, 2011).
Calls of active or inactive are those of the source.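 How the source made its calls: active means compounds lowering cell viability signal with fitted half-maximal concentration at most ten times their highest tested concentration; inconclusive means flat fit with 30 to 70% signal loss, or poor fit; inactive means the rest.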

System: HEK293T viability, CellTiter-Glo ATP luminescence, 48 h
Test: HEK293T cell viability reduction, dose response, cytotoxicity control for LMP1 NF-kB inhibitor project, CellTiter-Glo luminescence, cherry-picks (AID 504861)

SMILES | AC50
O=C(O)c1cc(/C=C/c2ccc(N3CCOCC3)cc2)nc2ccccc12 | > 26 µM (inactive)
Cc1cc(C)nc(SCc2ccc(C(=O)N/N=C/c3cccc(O)c3O)cc2)n1 | 20.3 µM
CCCC(=O)NC(c1cccc([N+](=O)[O-])c1)c1ccc2cccnc2c1O (configuration not stated) | 3.59 µM
COc1ccc(C(=O)C(CN2CCOCC2)c2ccccc2)cc1F (configuration not stated) | 8.32 µM
CCN(CC)c1ccc(/C=N/NC(=O)c2cnccn2)c(O)c1 | 3.21 µM
COc1ccc(C(NC(C)=O)c2cc(Cl)c3cccnc3c2O)cc1 (configuration not stated) | 4.88 µM
CC(=NNC(=S)Nc1ccccc1)c1ccccn1 | 1.56 µM
COc1ccc(-c2ccc(NC(=O)c3ccco3)cc2)nn1 | 7.75 µM
CCCCC(=O)NC(c1ccc(Cl)cc1)c1ccc2cccnc2c1O (configuration not stated) | 4.35 µM
CCCCC(=O)NC(c1ccc(N(CC)CC)cc1)c1ccc2cccnc2c1O (configuration not stated) | 1.54 µM
COc1ccc(OCc2cccc(C(=O)NN)c2)cc1 | > 26 µM (inactive)
CC(=O)NC(c1ccc(Cl)cc1)c1ccc2cccnc2c1O (configuration not stated) | 1.16 µM
Cn1c(/C=C/c2ccccc2)nc2ccccc21 | 9.76 µM
CC(=NNC(=S)N1CCCCC1)c1cccc(C)n1 | > 26 µM (inactive)
OC1(c2cccc(C(F)(F)F)c2)CCN(c2ncnc3c2[nH]c2ccc(F)cc23)CC1 | 17.8 µM
CCOc1ccc(/C=C/[N+](=O)[O-])c2ccccc12 | 11.8 µM
O=C(N/N=C/c1ccc(O)cc1O)c1ccc(CN2C(=O)c3cccc4cccc2c34)cc1 | 9.41 µM
CN(C)c1ccc(-c2nc3ccccc3n2C)cc1 | 14.1 µM
CC(C)C(=O)NC(c1ccc(Cl)cc1Cl)c1ccc2cccnc2c1O (configuration not stated) | 3 µM
CC(=NNc1nc2ccccc2o1)c1ncccn1 | 16 µM
Cc1ccc2nc(-c3ccccn3)[nH]c2c1 | 21.6 µM
CCOc1cccc(/C=N/Nc2ccc(S(=O)(=O)N(CC)CC)cn2)c1O | 1.69 µM
